Data taken from US9028845B2, “Chimeric immunomodulatory compounds and methods of using the same-IV” (Dynavax Technologies Corporation, priority 2001, dated 2015).
Strand notation (5' to 3'): a small letter for the sugar, then the base; units joined by * are phosphorothioate-linked, units joined directly phosphodiester-linked; [ ] holds rarer units or linkages, { } end groups; capitals alone tell only the bases. d = 2'-deoxy (DNA)

Legend:
PBMCs = experiment: Human PBMC proliferation assay (3H-thymidine incorporation); type: cell-based; conditions: Experiment A; for mean cpm: 2 μg/ml
human PBMCs = experiment: Human PBMC cytokine response assay (IFN-γ and IFN-α in cell-free medium by ELISA), with or without cPLGA; type: cell-based
[1] = Donor 5, 20 μg/ml (mixtures: 20 μg/ml total), 24 h
[2] = Donor 6, 20 μg/ml (mixtures: 20 μg/ml total), 24 h

For “5′-TGACTGTGAACCTTAGAGATGA-3′ (SEQ ID NO: 3) (dT*dG*dA*dC*dT*dG*dT*dG*dA*dA*dC*dC*dT*dT*dA*dG*dA*dG*dA*dT*dG*dA) [Compound P-7, negative control, reference compound]”, which cpm1 (PBMCs; Donor 146, 2 μg/ml) is on record?
The cpm1 was 7620 cpm.

What about the cpm2 (PBMCs; Donor 146, 2 μg/ml) of the same substance?
The cpm2 was 8362 cpm.

What about the cpm3 (PBMCs; Donor 146, 2 μg/ml) of the same substance?
The cpm3 was 9686 cpm.

And the mean cpm (PBMCs; Donor 146 mean)?
The mean cpm was 8556 cpm.

What about the cpm1 (PBMCs; Donor 147, 2 μg/ml) of the same substance?
The cpm1 was 9783 cpm.

What about the cpm2 (PBMCs; Donor 147, 2 μg/ml) of the same substance?
The cpm2 was 9841 cpm.

And the cpm3 (PBMCs; Donor 147, 2 μg/ml)?
The cpm3 was 10476 cpm.

What about the mean cpm (PBMCs; Donor 147 mean) of the same substance?
The mean cpm was 10033 cpm.

What about the mean of both (PBMCs; mean of Donors 146 and 147, 2 μg/ml) of the same substance?
The mean of both was 9295 cpm.

What about the “IFN-α (pg/ml) Donor 1” value (human PBMCs; Donor 1, 20 μg/ml, 24 h) of the same substance?
The value was 0 pg/mL.

And the “IFN-γ (pg/ml) Donor 1” value (human PBMCs; Donor 1, 20 μg/ml, 24 h)?
The value was 410 pg/mL.

What about the “IFN-α (pg/ml) Donor 2” value (human PBMCs; Donor 2, 20 μg/ml, 24 h) of the same substance?
The value was 0 pg/mL.

And the “IFN-γ (pg/ml) Donor 2” value (human PBMCs; Donor 2, 20 μg/ml, 24 h)?
The value was 51 pg/mL.

And the “IFN-α (pg/ml) Donor 3” value (human PBMCs; Donor 3, 20 μg/ml, 24 h)?
Its value is 0 pg/mL.

What about the “IFN-γ (pg/ml) Donor 3” value (human PBMCs; Donor 3, 20 μg/ml, 24 h) of the same substance?
The value was 3 pg/mL.

And the “IFN-α (pg/ml) Donor 4” value (human PBMCs; Donor 4, 20 μg/ml, 24 h)?
The value was 31 pg/mL.

What about the “IFN-γ (pg/ml) Donor 4” value (human PBMCs; Donor 4, 20 μg/ml, 24 h) of the same substance?
Its value is 8 pg/mL.

And the “IFN-α (pg/ml) Donor 5” value (human PBMCs; [1])?
The value was 20 pg/mL.

What about the “IFN-γ (pg/ml) Donor 5” value (human PBMCs; [1]) of the same substance?
The value was 7 pg/mL.

What about the “IFN-α (pg/ml) Donor 6” value (human PBMCs; [2]) of the same substance?
The value was 94 pg/mL.

And the “IFN-γ (pg/ml) Donor 6” value (human PBMCs; [2])?
The value was 66 pg/mL.

And the “IFN-α (pg/ml) Donor 7” value (human PBMCs; Donor 7, 20 μg/ml, 24 h)?
Its value is 0 pg/mL.

What about the “IFN-γ (pg/ml) Donor 7” value (human PBMCs; Donor 7, 20 μg/ml, 24 h) of the same substance?
Its value is 2 pg/mL.

And the “IFN-α (pg/ml) Donor 8” value (human PBMCs; Donor 8, 20 μg/ml, 24 h)?
The value was 0 pg/mL.

What about the “IFN-γ (pg/ml) Donor 8” value (human PBMCs; Donor 8, 20 μg/ml, 24 h) of the same substance?
The value was 2 pg/mL.

And the “IFN-α Donor 9” value (human PBMCs; Donor 9, 20 μg/ml, 24 h)?
The value was 0.

And the “IFN-γ Donor 9” value (human PBMCs; Donor 9, 20 μg/ml, 24 h)?
The value was 5.

What about the “IFN-α Donor 10” value (human PBMCs; Donor 10, 20 μg/ml, 24 h) of the same substance?
The value was 3.

What about the “IFN-γ Donor 10” value (human PBMCs; Donor 10, 20 μg/ml, 24 h) of the same substance?
Its value is 2.

What about the “IFN-α Donor 11” value (human PBMCs; Donor 11, 20 μg/ml, 24 h) of the same substance?
The value was 1.

And the “IFN-γ Donor 11” value (human PBMCs; Donor 11, 20 μg/ml, 24 h)?
Its value is 3.

And the “IFN-α Donor 12” value (human PBMCs; Donor 12, 20 μg/ml, 24 h)?
The value was 5.

And the “IFN-γ Donor 12” value (human PBMCs; Donor 12, 20 μg/ml, 24 h)?
The value was 2.

And the IFN-α (human PBMCs; Example 58, 0.8 ug/ml, donor 1)?
Its IFN-α is 52 pg/mL.

What about the IFN-α (human PBMCs; Example 58, 0.8 ug/ml, donor 2) of the same substance?
Its IFN-α is 52 pg/mL.

And the IFN-α (human PBMCs; Example 58, 0.8 ug/ml, donor 3)?
Its IFN-α is 52 pg/mL.

What about the IFN-α (human PBMCs; Example 58, 0.8 ug/ml, donor 4) of the same substance?
The IFN-α was 52 pg/mL.

And the IFN-α mean (human PBMCs; Example 58, 0.8 ug/ml, mean of four individuals)?
The IFN-α mean was 52 pg/mL.

And the IFN-α (human PBMCs; Example 58, 4 ug/ml, donor 1)?
The IFN-α was 52 pg/mL.

What about the IFN-α (human PBMCs; Example 58, 4 ug/ml, donor 2) of the same substance?
Its IFN-α is 52 pg/mL.

What about the IFN-α (human PBMCs; Example 58, 4 ug/ml, donor 3) of the same substance?
Its IFN-α is 52 pg/mL.

What about the IFN-α (human PBMCs; Example 58, 4 ug/ml, donor 4) of the same substance?
Its IFN-α is 52 pg/mL.

What about the IFN-α mean (human PBMCs; Example 58, 4 ug/ml, mean of four individuals) of the same substance?
The IFN-α mean was 52 pg/mL.

And the IFN-α (human PBMCs; Example 58, 20 ug/ml, donor 1)?
The IFN-α was 52 pg/mL.

And the IFN-α (human PBMCs; Example 58, 20 ug/ml, donor 2)?
The IFN-α was 52 pg/mL.

And the IFN-α (human PBMCs; Example 58, 20 ug/ml, donor 3)?
The IFN-α was 52 pg/mL.

What about the IFN-α (human PBMCs; Example 58, 20 ug/ml, donor 4) of the same substance?
The IFN-α was 52 pg/mL.

And the IFN-α mean (human PBMCs; Example 58, 20 ug/ml, mean of four individuals)?
Its IFN-α mean is 52 pg/mL.

What about the IFN-α (human PBMCs; Example 59, 0.8 ug/ml, donor 48) of the same substance?
Its IFN-α is 102 pg/mL.

And the IFN-α (human PBMCs; Example 59, 0.8 ug/ml, donor 177)?
The IFN-α was 102 pg/mL.

What about the IFN-α (human PBMCs; Example 59, 0.8 ug/ml, donor 272) of the same substance?
Its IFN-α is 102 pg/mL.

And the IFN-α (human PBMCs; Example 59, 0.8 ug/ml, donor 273)?
Its IFN-α is 102 pg/mL.

And the IFN-α mean (human PBMCs; Example 59, 0.8 ug/ml, mean of four donors)?
The IFN-α mean was 102 pg/mL.

And the IFN-α (human PBMCs; Example 59, 4 ug/ml, donor 48)?
Its IFN-α is 102 pg/mL.

And the IFN-α (human PBMCs; Example 59, 4 ug/ml, donor 177)?
Its IFN-α is 102 pg/mL.

And the IFN-α (human PBMCs; Example 59, 4 ug/ml, donor 272)?
Its IFN-α is 102 pg/mL.

And the IFN-α (human PBMCs; Example 59, 4 ug/ml, donor 273)?
Its IFN-α is 102 pg/mL.

What about the IFN-α mean (human PBMCs; Example 59, 4 ug/ml, mean of four donors) of the same substance?
Its IFN-α mean is 102 pg/mL.

And the IFN-α (human PBMCs; Example 59, 20 ug/ml, donor 48)?
The IFN-α was 102 pg/mL.

And the IFN-α (human PBMCs; Example 59, 20 ug/ml, donor 177)?
The IFN-α was 102 pg/mL.

What about the IFN-α (human PBMCs; Example 59, 20 ug/ml, donor 272) of the same substance?
The IFN-α was 102 pg/mL.

And the IFN-α (human PBMCs; Example 59, 20 ug/ml, donor 273)?
Its IFN-α is 102 pg/mL.

And the IFN-α mean (human PBMCs; Example 59, 20 ug/ml, mean of four donors)?
Its IFN-α mean is 102 pg/mL.

What about the IFN-α (human PBMCs; Table 9, donor 28089) of the same substance?
Its IFN-α is 0 pg/mL.

And the IFN-γ (human PBMCs; Table 9, donor 28089)?
Its IFN-γ is 0 pg/mL.

What about the IFN-α (human PBMCs; Table 9, donor 28090) of the same substance?
Its IFN-α is 27 pg/mL.

What about the IFN-γ (human PBMCs; Table 9, donor 28090) of the same substance?
Its IFN-γ is 4 pg/mL.

And the IFN-α (human PBMCs; Table 9, donor 28098)?
Its IFN-α is 19 pg/mL.

What about the IFN-γ (human PBMCs; Table 9, donor 28098) of the same substance?
Its IFN-γ is 0 pg/mL.

What about the IFN-α (human PBMCs; Table 9, donor 28099) of the same substance?
The IFN-α was 37 pg/mL.

What about the IFN-γ (human PBMCs; Table 9, donor 28099) of the same substance?
Its IFN-γ is 2 pg/mL.

What about the IFN-α mean (human PBMCs; Table 9, mean of donors) of the same substance?
The IFN-α mean was 21 pg/mL.

What about the IFN-γ mean (human PBMCs; Table 9, mean of donors) of the same substance?
The IFN-γ mean was 1 pg/mL.

What about the IFN-α (human PBMCs; Table 10, donor 28042) of the same substance?
The IFN-α was 0 pg/mL.

What about the IFN-γ (human PBMCs; Table 10, donor 28042) of the same substance?
The IFN-γ was 66 pg/mL.

What about the IFN-α (human PBMCs; Table 10, donor 28043) of the same substance?
The IFN-α was 11 pg/mL.

What about the IFN-γ (human PBMCs; Table 10, donor 28043) of the same substance?
The IFN-γ was 76 pg/mL.

What about the IFN-α (human PBMCs; Table 10, donor 28044) of the same substance?
The IFN-α was 22 pg/mL.

What about the IFN-γ (human PBMCs; Table 10, donor 28044) of the same substance?
Its IFN-γ is 26 pg/mL.

What about the IFN-α (human PBMCs; Table 10, donor 28045) of the same substance?
Its IFN-α is 20 pg/mL.

What about the IFN-γ (human PBMCs; Table 10, donor 28045) of the same substance?
The IFN-γ was 13 pg/mL.

What about the IFN-α mean (human PBMCs; Table 10, mean of donors) of the same substance?
The IFN-α mean was 13 pg/mL.

What about the IFN-γ mean (human PBMCs; Table 10, mean of donors) of the same substance?
The IFN-γ mean was 45 pg/mL.

What about the IFN-α (human PBMCs; Table 11, donor 28042) of the same substance?
Its IFN-α is 0 pg/mL.

What about the IFN-γ (human PBMCs; Table 11, donor 28042) of the same substance?
Its IFN-γ is 34 pg/mL.

What about the IFN-α (human PBMCs; Table 11, donor 28043) of the same substance?
Its IFN-α is 0 pg/mL.

What about the IFN-γ (human PBMCs; Table 11, donor 28043) of the same substance?
Its IFN-γ is 19 pg/mL.

And the IFN-α (human PBMCs; Table 11, donor 28044)?
The IFN-α was 4 pg/mL.
